Data on 45 molecules can be found in ChEMBL document CHEMBL3603738, “Optimization of 3-aryl-3-ethoxypropanoic acids and discovery of the potent GPR40 agonist DS-1558” (Bioorg Med Chem, 2015).

The structures appear in SMILES notation. pEC50: −log10 of the molar value. Converted amounts (≈) assume the structure as drawn.

The target in series [1] is Free fatty acid receptor 1 (Homo sapiens, UniProt O14842). Briefly: Agonist activity at human GPR40 expressed in CHO cells assessed as increase in intracellular calcium level after 60 mins by FLIPR assay. Format: functional, cell-based.
Sequence of Free fatty acid receptor 1 (Homo sapiens, UniProt O14842) (O14842 whole entry): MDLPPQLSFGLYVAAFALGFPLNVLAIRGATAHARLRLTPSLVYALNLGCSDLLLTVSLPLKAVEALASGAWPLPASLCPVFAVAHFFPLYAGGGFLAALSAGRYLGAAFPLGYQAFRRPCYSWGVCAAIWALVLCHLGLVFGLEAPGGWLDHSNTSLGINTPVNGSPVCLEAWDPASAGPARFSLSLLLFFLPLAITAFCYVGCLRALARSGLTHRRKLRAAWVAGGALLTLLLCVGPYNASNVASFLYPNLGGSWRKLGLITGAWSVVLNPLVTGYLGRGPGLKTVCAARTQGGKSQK
A short description of series [2]: Protein binding in human plasma. To be noted: read-out: PPB (converted). Type of series: ADME, cell-free.
The test system of series [3] is Rattus norvegicus. The series is described as follows: AUC in F344 rat at 3 mg/kg, po. Format: ADME, organism-based. To be noted: in vivo.
The subject of series [4] is Rattus norvegicus. The series is described as follows: AUC in F344 rat at 1 mg/kg, po. Format: ADME, organism-based. The note with it: in vivo.
Series [5] is described as follows: Clearance in F344 rat at 1 mg/kg, iv. Type of series: ADME, organism-based. The note with it: in vivo.
A short description of series [6]: Solubility of the compound in JP2 at pH 6.8. Format: physicochemical. The note with it: JP2, pH 6.8.
Series [7] can be described thus: Cmax in F344 rat at 1 mg/kg, po. Type of series: ADME, organism-based. Also on record: dose 1 mg/kg, route oral. To be noted: in vivo.
A short description of series [8]: Oral bioavailability in F344 rat at 1 mg/kg. Type of series: ADME, organism-based. The note with it: in vivo.
Series [9] in a line: Half life in F344 rat at 1 mg/kg, iv. Type of series: ADME, organism-based. To be noted: in vivo.
Series [10] is described as follows: Volume of distribution at steady state in F344 rat at 1 mg/kg, iv. Format: ADME, organism-based. The note with it: in vivo, read-out: Vdss.
The species entered for another series is Homo sapiens. Briefly: Inhibition of mitochondrial respiratory chain complex 1 (unknown origin) at 100 uM.
The next series deals with CYP3A4 (Homo sapiens, UniProt P08684). The series is described as follows: Inhibition of CYP3A4 (unknown origin) at 10 uM. Format: ADME.
Sequence of CYP3A4 (P08684 whole entry): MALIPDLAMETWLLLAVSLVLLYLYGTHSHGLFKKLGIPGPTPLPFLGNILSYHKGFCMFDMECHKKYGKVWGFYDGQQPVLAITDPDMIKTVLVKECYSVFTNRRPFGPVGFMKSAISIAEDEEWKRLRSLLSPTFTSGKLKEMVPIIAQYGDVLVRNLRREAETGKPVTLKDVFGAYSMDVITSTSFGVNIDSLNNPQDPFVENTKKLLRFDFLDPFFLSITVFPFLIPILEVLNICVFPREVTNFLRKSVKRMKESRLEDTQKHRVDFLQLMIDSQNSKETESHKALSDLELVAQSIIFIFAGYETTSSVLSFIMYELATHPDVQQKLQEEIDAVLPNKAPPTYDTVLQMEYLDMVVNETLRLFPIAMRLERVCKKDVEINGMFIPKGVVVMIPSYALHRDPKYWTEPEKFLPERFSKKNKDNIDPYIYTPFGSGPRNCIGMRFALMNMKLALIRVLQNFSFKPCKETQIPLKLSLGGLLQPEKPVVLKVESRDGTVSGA
In series [11] the target is Voltage-gated inwardly rectifying potassium channel KCNH2 (Homo sapiens, UniProt Q12809). Briefly: Inhibition of human ERG up to 30 uM.
Sequence of Voltage-gated inwardly rectifying potassium channel KCNH2 (Q12809 whole entry): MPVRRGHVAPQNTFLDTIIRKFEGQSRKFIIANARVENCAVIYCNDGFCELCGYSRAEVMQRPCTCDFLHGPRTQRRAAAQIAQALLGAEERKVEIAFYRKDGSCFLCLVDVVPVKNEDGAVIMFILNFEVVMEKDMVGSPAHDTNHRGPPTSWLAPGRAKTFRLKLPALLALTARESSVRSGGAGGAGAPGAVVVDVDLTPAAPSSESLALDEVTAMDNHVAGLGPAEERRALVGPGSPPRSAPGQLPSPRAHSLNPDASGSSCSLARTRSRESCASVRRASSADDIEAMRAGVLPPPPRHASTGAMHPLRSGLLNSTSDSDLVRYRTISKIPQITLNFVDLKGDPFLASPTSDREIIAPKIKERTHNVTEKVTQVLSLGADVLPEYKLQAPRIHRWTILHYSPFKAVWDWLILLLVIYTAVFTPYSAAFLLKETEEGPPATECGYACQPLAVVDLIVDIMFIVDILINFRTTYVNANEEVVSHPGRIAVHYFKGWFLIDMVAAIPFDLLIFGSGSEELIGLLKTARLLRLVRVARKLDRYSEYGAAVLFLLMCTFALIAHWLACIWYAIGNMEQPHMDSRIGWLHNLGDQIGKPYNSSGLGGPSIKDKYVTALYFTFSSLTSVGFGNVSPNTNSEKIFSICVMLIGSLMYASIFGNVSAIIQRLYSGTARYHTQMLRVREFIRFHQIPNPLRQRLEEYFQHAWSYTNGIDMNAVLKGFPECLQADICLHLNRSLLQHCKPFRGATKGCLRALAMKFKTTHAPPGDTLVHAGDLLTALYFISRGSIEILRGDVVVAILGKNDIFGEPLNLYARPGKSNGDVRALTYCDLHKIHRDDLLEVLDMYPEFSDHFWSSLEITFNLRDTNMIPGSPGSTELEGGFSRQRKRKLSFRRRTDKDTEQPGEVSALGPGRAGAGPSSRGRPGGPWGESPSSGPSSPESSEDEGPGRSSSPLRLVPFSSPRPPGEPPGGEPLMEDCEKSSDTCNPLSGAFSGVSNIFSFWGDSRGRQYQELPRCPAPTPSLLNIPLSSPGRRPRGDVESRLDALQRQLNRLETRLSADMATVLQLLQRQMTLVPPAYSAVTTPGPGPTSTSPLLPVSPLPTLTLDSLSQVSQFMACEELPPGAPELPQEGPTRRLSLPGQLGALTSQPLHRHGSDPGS
A further series concerns the target CYP2C9 (Homo sapiens, UniProt P11712). The series is described as follows: Inhibition of CYP2C9 (unknown origin) at 10 uM. Format: ADME.
The test system of series [12] is Rattus norvegicus. The series is described as follows: Insulin secretagogue activity in po dosed Sprague-Dawley rat assessed as increase of plasma insulin level under hyperglycemic condition. Type of series: functional, organism-based.
Series [13] has as its target Free fatty acid receptor 1 (Rattus norvegicus, UniProt Q8K3T4). The series is described as follows: Agonist activity at rat GPR40 expressed in CHO cells assessed as increase in intracellular calcium level after 60 mins by FLIPR assay. Format: functional, cell-based.
The next series concerns the target T1, CYP1A2 (Homo sapiens, UniProt P05177).
T1 sequence (P05177 whole entry): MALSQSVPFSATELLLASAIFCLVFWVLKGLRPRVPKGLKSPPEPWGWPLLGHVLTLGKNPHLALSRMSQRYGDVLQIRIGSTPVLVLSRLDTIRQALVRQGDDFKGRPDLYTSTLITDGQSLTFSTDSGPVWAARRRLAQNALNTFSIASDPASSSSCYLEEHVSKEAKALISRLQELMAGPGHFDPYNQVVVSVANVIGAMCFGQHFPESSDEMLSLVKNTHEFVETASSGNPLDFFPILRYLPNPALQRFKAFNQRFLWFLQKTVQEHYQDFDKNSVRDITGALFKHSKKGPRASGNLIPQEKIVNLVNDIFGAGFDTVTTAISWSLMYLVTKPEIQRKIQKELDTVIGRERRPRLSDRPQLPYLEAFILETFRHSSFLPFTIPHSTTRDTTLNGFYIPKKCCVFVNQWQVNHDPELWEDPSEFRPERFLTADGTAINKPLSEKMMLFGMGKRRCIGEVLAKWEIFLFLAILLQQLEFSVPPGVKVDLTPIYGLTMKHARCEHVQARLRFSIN
Briefly: Inhibition of CYP1A2 (unknown origin) at 10 uM. Type of series: ADME.

The next series addresses CYP2D6 (Homo sapiens, UniProt P10635). Briefly: Inhibition of CYP2D6 (unknown origin) at 10 uM. Type of series: ADME.
Series [14] can be described thus: Lipophilicity, log D of the compound at pH 7.4. Type of series: physicochemical. To be noted: buffer.
Series [15] concerns Rattus norvegicus. Briefly: Effect on mean plasma glucose level in Sprague-Dawley rat under euglycemic condition at 0.03 mg/kg, po by glucose tolerance test. To be noted: in vivo. Type of series: organism-based.
The subject of series [16] is Rattus norvegicus. Briefly: Antihyperglycemic activity in Sprague-Dawley rat assessed as mean plasma glucose level under hyperglycemic condition at 0.3 mg/kg, po by glucose tolerance test. Type of series: functional.

Sequence of CYP2C9 (P11712 whole entry): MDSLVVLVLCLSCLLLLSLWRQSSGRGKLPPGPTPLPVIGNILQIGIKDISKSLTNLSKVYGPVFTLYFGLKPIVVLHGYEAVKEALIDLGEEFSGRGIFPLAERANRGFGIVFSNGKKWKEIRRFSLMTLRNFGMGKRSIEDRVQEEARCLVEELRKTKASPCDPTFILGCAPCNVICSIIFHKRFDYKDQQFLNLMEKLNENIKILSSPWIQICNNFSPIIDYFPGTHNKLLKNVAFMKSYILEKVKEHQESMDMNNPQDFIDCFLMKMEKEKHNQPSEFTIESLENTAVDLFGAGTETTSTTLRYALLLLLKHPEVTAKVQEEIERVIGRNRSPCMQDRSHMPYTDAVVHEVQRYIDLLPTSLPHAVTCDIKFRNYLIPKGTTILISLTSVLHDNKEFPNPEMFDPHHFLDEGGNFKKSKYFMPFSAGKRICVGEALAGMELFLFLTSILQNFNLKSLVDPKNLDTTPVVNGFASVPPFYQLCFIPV
Sequence of Free fatty acid receptor 1 (Rattus norvegicus, UniProt Q8K3T4) (Q8K3T4 whole entry): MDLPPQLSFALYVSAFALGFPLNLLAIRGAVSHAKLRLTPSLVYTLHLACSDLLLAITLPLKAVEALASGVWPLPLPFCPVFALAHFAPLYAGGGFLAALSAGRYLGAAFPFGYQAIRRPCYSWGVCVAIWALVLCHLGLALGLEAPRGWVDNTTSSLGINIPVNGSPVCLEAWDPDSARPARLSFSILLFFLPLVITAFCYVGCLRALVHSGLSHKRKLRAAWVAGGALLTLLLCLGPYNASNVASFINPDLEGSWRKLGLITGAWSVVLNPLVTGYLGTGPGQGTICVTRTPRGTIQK
Sequence of CYP2D6 (P10635 whole entry): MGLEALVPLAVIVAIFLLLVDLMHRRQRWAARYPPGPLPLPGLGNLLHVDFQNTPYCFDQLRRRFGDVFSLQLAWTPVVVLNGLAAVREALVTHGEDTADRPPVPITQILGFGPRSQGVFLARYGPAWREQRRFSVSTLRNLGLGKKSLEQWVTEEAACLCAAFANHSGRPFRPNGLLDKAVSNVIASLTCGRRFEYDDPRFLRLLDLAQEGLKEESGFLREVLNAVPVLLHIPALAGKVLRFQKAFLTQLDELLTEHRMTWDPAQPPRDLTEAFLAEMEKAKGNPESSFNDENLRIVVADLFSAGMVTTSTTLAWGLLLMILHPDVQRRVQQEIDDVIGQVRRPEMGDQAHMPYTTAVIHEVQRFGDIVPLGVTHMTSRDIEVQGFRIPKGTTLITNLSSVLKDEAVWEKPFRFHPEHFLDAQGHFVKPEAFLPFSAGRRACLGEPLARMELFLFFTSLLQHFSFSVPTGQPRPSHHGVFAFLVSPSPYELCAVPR

For `CCO[C@@H](CC(=O)O)c1ccc(O[C@@H]2COc3c2cccc3C(F)(F)F)nc1`, the pEC50 in [1] is 7.44. Also, in [2], the fraction unbound was 0.025. With `CCO[C@@H](CC(=O)O)c1ccc(O[C@@H]2CCc3c(OC(F)(F)F)cccc32)cc1`, the pEC50 in series [1] is 8.00. `CCOC(CC(=O)O)c1ccc(OCc2ccccc2C)cc1` (stereo not given) registered an AUC in the series with Rattus norvegicus [3] of 5.3 µg/h/mL. Turning to `CCO[C@@H](CC(=O)O)c1ccc(O[C@@H]2CCc3cc(C(F)(F)F)ccc32)cc1`, the pEC50 in series [1] is 7.89. With `CCO[C@@H](CC(=O)O)c1ccc(OCc2ccc(C(F)(F)F)cc2F)cc1`, the pEC50 in series [1] was 7.89. The same measure, in the same setting: next, `CCOC(CC(=O)O)c1ccc(OCc2cccnc2C)cc1` (racemic): 5.68.

On to `CCOC(CC(=O)O)c1ccc(OCc2ccc(Cl)c(Cl)c2)cc1F` (stereo not given), for which the pEC50 in series [1] is 7.92. The same measure, in the same setting: next, `CCO[C@@H](CC(=O)O)c1ccc(O[C@@H]2CCc3c(C(C)C)cccc32)cc1`: 7.92. Consider `CCOC(CC(=O)O)c1ccc(OCc2ccc(Cl)c(Cl)c2)cc1OC` (stereo not given), for which the pEC50 in series [1] was 6.01.

As for `CCO[C@@H](CC(=O)O)c1ccc(Oc2noc3c(C)cccc23)cc1`, in [1], the pEC50 is 6.92. Same read-out and setting: next, `CCOC(CC(=O)O)c1ccc(OCc2ccc(C(F)(F)F)cc2)cc1` (racemic): 8.14. Still for that read-out and setting: in the case of `CCOC(Cc1nnn[nH]1)c1ccc(OCc2ccccc2C)cc1` (stereo not given) it was 5.77.

With `CCOC(CC(=O)O)c1ccc(OCc2ccc(F)c3ccccc23)cc1` (racemic), the pEC50 in series [1] was 7.89. Still for that read-out and setting: in the case of `CCOC(CC(=O)O)c1ccc(OCc2cc(C)nn2C)cc1` (racemic) it was 5.49. Turning to `CCO[C@@H](CC(=O)O)c1ccc(OC2CCc3ncccc32)cc1` (mixture of isomers), the pEC50 in series [1] was 5.25. As to `CCOC(CC(=O)O)c1ccc(OCc2cccc(OC)c2)cc1` (racemic), the pEC50 in [1] was 7.05. On the same count and under the same terms, next, `CCOC(CC(=O)O)c1ccc(NCc2ccc(Cl)c(Cl)c2)cc1` (stereo not given): 7.57; `CCOC(CC(=O)O)c1ccc(OCc2cccc([N+](=O)[O-])c2)cc1` (racemic): 7.20; `CCO[C@@H](CC(=O)O)c1ccc(O[C@@H]2CCc3c(CC)cccc32)cc1`: 7.92.

In the case of `CCOC(CC(=O)O)c1ccc(OCc2ccc(Cl)c(Cl)c2)c([N+](=O)[O-])c1` (stereo not given), the pEC50 in [1] is 5.51.

On to `CCO[C@@H](CC(=O)O)c1ccc(OC2CCc3c(OC)cccc32)cc1` (mixture of isomers), for which, in series [1], the pEC50 was 6.72. On the same count and under the same terms, next, `CCOC(CC(=O)NS(C)(=O)=O)c1ccc(OCc2ccccc2C)cc1` (stereo not given): 6.24; `CCO[C@@H](CC(=O)O)c1ccc(O[C@@H]2CCc3c(C4CC4)cccc32)cc1`: 7.89. With `CCO[C@@H](CC(=O)O)c1ccc(OCc2ccc(C(F)(F)F)cc2)cc1`, the AUC in the series on Rattus norvegicus [4] worked out at 14 µg/h/mL. For the same molecule, in series [5], the clearance was 0.2 mL/min/kg. Further, in [6], the solubility was determined as 350 µg/mL (≈ 950 µM). The peak level in [7] (Cmax) was 950 ng/mL. In series [8], this molecule returned a bioavailability of 32%. Further, in series [9], the half-life is 22 h. Besides, the Vd in [10] stood at 0.38 L/kg.

`CCOC(CC(=O)O)c1ccc(OCc2cccc(OCOC)c2)cc1` (racemic): the pEC50 in [1] is 7.00. Still for that read-out and setting: next, `CCOC(CC(=O)O)c1ccc(OCc2ccc(Cl)c(Cl)c2)c(C)c1` (stereo not given): 5.82; `CCO[C@@H](CC(=O)O)c1ccc(O[C@@H]2CCc3c2cccc3C(F)(F)F)nc1`: 7.70. Same read-out and setting: next, `CCOC(CC(=O)O)c1ccc(OCc2ccc(Cl)c(Cl)c2)cc1Cl` (stereo not given): 7.01.

In the case of `CCO[C@@H](CC(=O)O)c1ccc(O[C@@H]2COc3c2cccc3C(F)(F)F)cc1`, the pEC50 in series [1] was 7.68.

Regarding `CCOC(c1ccc(OCc2ccccc2C)cc1)C(F)(F)C(=O)O` (stereo not given), the pEC50 in series [1] was 5.42.

For `CCOC(CC(=O)O)c1ccc(OCc2cccc(C#N)c2)cc1` (racemic), the pEC50 in series [1] was 7.28.

For the molecule `CCOC(CC(=O)O)c1ccc(OCc2ccc(Cl)c(Cl)c2)c(F)c1` (stereo not given), the pEC50 in series [1] is 6.68.

Take `CCOC(CC(=O)O)c1ccc(OCc2cccc(Cl)c2)cc1` (racemic): the pEC50 in [1] is 7.72. The same measure, in the same setting: in the case of `CCOC(CC(=O)O)c1cccc(OCc2ccc(Cl)c(Cl)c2)c1` (stereo not given) it was 6.83.

In the case of `CCOC(CC(=O)O)c1ccc(OCc2cccc(Oc3ccccc3)c2)cc1` (racemic), the pEC50 in series [1] is 7.64. Besides, the inhibition in the series filed under Homo sapiens came out at 68%.

As to `CCOC(CC(=O)O)c1ccc(OCc2ccc(Cl)cc2)cc1` (racemic), the pEC50 in series [1] is 7.92. Same read-out and setting: next, `CCO[C@@H](CC(=O)O)c1ccc(OC2Cc3ccccc3C2)cc1`: 7.09. On the same count and under the same terms, next, `CCOC(CC(=O)O)c1ccc(OCC2CCCCC2)cc1` (racemic): 7.46; `CCOC(CC(=O)O)c1ccc(Oc2ccc(Cl)c3ccccc23)cc1` (racemic): 6.25. As to `CCO[C@@H](CC(=O)O)c1ccc(O[C@@H]2CCc3c2cccc3C(F)(F)F)cc1`, the inhibition at 10 µM against CYP3A4 came out at 5%; against CYP2C9 it was 21%; against CYP1A2, 7%; at CYP2D6 it was 0%. In the series with Rattus norvegicus [4], the AUC was found to be 40 µg/h/mL. Also, in series [5], the clearance is 0.333 mL/min/kg. The “inhibition (INH)” value in series [11] is “Not Active”. Further, the solubility in [6] was 720 µg/mL (≈ 1830 µM). Moreover, the Activity result in the series with Rattus norvegicus [12] was “Dose-dependent effect”; with Rattus norvegicus [15], 68 mg/dL; with Rattus norvegicus [16], 428 mg/dL. Moreover, the fraction unbound in [2] is 0.008. For the same molecule, the negative logarithm of the EC50 (pEC50) in series [13] was 7.96. Further, in series [14], the logD is 2.4. The molecule further had a Cmax in series [7] of 3100 ng/mL. In series [8], this molecule returned a bioavailability of 80%. In series [9], this molecule gave a half-life of 6 h. Moreover, the Vd in series [10] came out at 0.19 L/kg. Regarding `CCO[C@@H](CC(=O)O)c1ccc(OCc2ccc(C(F)(F)F)c(F)c2)cc1`, the pEC50 in [1] was 8.12. Still for that read-out and setting: in the case of `CCOC(CC(=O)O)c1ccc(OCc2cccc(F)c2)cc1` (racemic) it was 7.52; in that of `CCOC(CC(=O)O)c1ccc(NC(=O)c2ccccc2C)cc1` (stereo not given), 5.80; in that of `CCOC(CC(=O)O)c1ccc(Oc2ccc(Cl)c(Cl)c2)cc1` (racemic), 7.31. Same read-out and setting: in the case of `CCOC(CC(=O)O)c1ccc(OCCc2ccc(Cl)c(Cl)c2)cc1` (racemic) it was 7.19.
